The record followed here is patent publication US7550480B2, “Compounds” (SmithKline Beecham Corporation, priority 2003, dated 2009).

Values joined by “and” are separate entries in the source; they are usually repeats but may differ in a detail not shown here. Equal values may be shown once.

For experiment [1], the target named is T1, CSBP/p38 (Homo sapiens, UniProt Q16539). As to the kind of experiment: Fluorescence Anisotropy Kinase Binding Assay. The settings on record: pKi is the negative log of the Ki; p38 enzyme 12 nM, fluorescent ligand 5 nM. As for the experimental part: The concentration of kinase enzyme should preferably be ≧1×Kf. The concentration of fluorescent ligand required will depend on the instrumentation used, and the fluorescent and physicochemical properties. The concentration used must be lower than the concentration of kinase enzyme, and preferably less than half the kinase enzyme concentration.
All components dissolved in Buffer of final composition 62.5 mM HEPES, pH 7.5, 1.25 mM CHAPS, 1.25 mM […], 12.5 mM MgCl2 3.3% DMSO.
p38 Enzyme concentration: 12 nM
Fluorescent ligand concentration: 5 nM
Test compound concentration: 0.1 nM-100 uM
Components incubated in 30 ul final volume in NUNC 384 well black microtitre plate until equilibrium reached (5-30 mins)
Fluorescence anisotropy read in LJL Acquest.
Definitions: Ki=dissociation constant for inhibitor binding
• Kf=dissociation constant for fluorescent ligand binding The fluorescent ligand is the following compound:
[drawing 13] which is derived from 5-[2-(4-aminomethylphenyl)-5-pyridin-4-yl-1H-imidazol-4-yl]-2-chlorophenol and rhodamine green.

For experiment [2], the target named is T1, CSBP/p38. As to the kind of experiment: CSBP/p38 Kinase Assay (32P transfer to EGFR-derived T669 peptide). In kind it is biochemical. The arrangement: made in house; host or cells: yeast. The note with it: for IC50: 0.17 mM ATP, 0.67 mM T669 peptide, 2-4 nM yeast-expressed activated p38, 25 min at 37° C.; for active as inhibitors of the CSBP kinase: statement in words, assay not given. As for the experimental part: This assay measures the CSBP/p38-catalyzed transfer of ^32P from [a-^32P]ATP to threonine residue in an epidermal growth factor receptor (EGFR)-derived peptide (T669) with the following sequence: […] (SEQ ID 1) (residues 661-681). (See Gallagher et al., “Regulation of Stress Induced Cytokine Production by Pyridinyl Imidazoles: Inhibition of CSBP Kinase”, BioOrganic & Medicinal Chemistry, 1997, 5, 49-64).
Reactions are carried in round bottom 96 well plate (from Corning) in a […] volume. […] Filters are washed with 75 mM phosphoric acids, and incorporated 32P was quantified using beta scintillation counter. Under these conditions, the specific activity of p38 will be determined and is generally 400-450 pmol/pmol enzyme, and the activity being linear for up to 2 hours of incubation. The kinase activity values are obtained after subtracting values generated in the absence of substrate which were 10-15% of total values.

T1 sequence (Q16539 whole entry): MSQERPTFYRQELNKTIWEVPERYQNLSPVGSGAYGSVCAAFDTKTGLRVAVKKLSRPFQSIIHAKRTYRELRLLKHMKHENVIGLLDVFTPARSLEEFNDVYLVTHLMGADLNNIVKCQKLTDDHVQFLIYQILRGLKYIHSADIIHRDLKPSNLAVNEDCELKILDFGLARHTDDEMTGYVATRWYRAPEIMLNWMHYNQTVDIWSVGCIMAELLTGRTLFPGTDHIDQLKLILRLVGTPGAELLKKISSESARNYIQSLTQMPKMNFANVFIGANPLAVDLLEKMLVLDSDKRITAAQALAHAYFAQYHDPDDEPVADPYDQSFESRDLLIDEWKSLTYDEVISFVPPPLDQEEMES

Turning to `COc1cc2c(ccc(=O)n2-c2ccccc2Cl)c(-c2ccccc2Cl)c1Br` (single isomer, unassigned) [Example 17, 6-bromo-1,5-bis(2-chlorophenyl)-7-(methyloxy)-2(1H)-quinolinone], the inhibitory constant (Ki) in experiment [1] is 20 nM and 12.6 nM.

Molecule `O=c1ccc2c(-c3ccccc3)nccc2n1Cc1ccccc1` [Example 9, 1-Benzyl-5-phenyl-1H-[1,6]naphthyridin-2-one] showed an IC50 in experiment [2] of 60 nM.

With `O=c1ccc2c(-c3ccccc3)nccc2n1-c1ccccc1` [Example 10, 1,5-Diphenyl-1H-[1,6]naphthyridin-2-one], in experiment [2], half-maximal inhibition (IC50) was put at 200 nM.

Turning to `Cn1c(=O)ccc2c(-c3ccccc3)nccc21` [Example 11, 1-Methyl-5-phenyl-1H-[1,6]naphthyridin-2-one], in experiment [2], the IC50 was found to be 5000 nM and the “active as inhibitors of the CSBP kinase” value is on record as “active”.

With `O=c1ccc2c(-c3ccccc3)nccc2[nH]1` [Example 12, 5-Phenyl-1H-[1,6]naphthyridin-2-one], in experiment [2], the IC50 is 13400 nM and the “active as inhibitors of the CSBP kinase” value is “active”.
